In series [1] the target is T1, SARS-CoV-2 M^pro (Severe acute respiratory syndrome coronavirus 2, UniProt P0DTD1). Put plainly: Determination of the inhibition constants (Ki) for SARS-CoV-2 Mpro, Morrison equation, QS1 fluorogenic substrate. It counts as biochemical. Particulars: for Ki / Biological Activity (pKi): M^pro 25 nM, QS1 20 µM; for Ki: 30 min preincubation at 37°C, pH 7.2; for Biological Activity (pKi): supplement table, 30 min preincubation at 37 °C; for fold more potent than compound 22 / ΔpK i relative to oxime analog 22: warhead exchange, vs compound 22.

For a further series, the target named is WT SARS-CoV-2 Mpro (Severe acute respiratory syndrome coronavirus 2, UniProt P0DTD1). Put plainly: Jump-dilution assay for reversibility of inhibition. It counts as biochemical. Particulars: for mechanism of inhibition (reversibility): incubated 30 min at 100 nM M^pro and 200 nM inhibitor, 10-fold dilution, followed 30 min; for residual enzyme activity after jump dilution: 10-fold dilution to 10 nM M^pro, 20 nM inhibitor.

The nature of series [2]: Metabolic stability against liver microsomes, loss of parent compound by HPLC-UV. Particulars: 37°C; for remaining parent compound after 480 min: rat liver microsomes 0.2 mg/mL, NADPH, 100 µM compound, 480 min (8 h); for metabolic stability toward liver microsomes (in words): rat liver microsomes, up to 480 min.
For series [3], the target named is T1, SARS-CoV-2 M^pro. Put plainly: Determination of Kinact/KI for time-dependent (irreversible) inhibitors, progress curves. It is filed as biochemical. The note with it: for kinact/KI: read-out: Kinact/KI (supplement table).

This is an account of results in paper PMC12664123, “Exploring Nirmatrelvir Derivatives Through P2 Substituent Modifications and Warhead Innovations Targeting the Main Protease of SARS‐CoV‐2” (Archiv Der Pharmazie, 2025).

The structures appear in SMILES notation.

In general, Ki refers to the dissociation constant of the complex between target and ligand, obtained from inhibition or displacement. A low value points to a stronger hold on the target.

Take `C#CCO[C@@H]1C[C@@H](C(=O)N[C@H](C=NO)C[C@@H]2CCNC2=O)N(C(=O)[C@@H](NC(=O)C(F)(F)F)C(C)(C)C)C1` [Compound 25, (2S,4R)−1‐{(S)−3,3‐Dimethyl‐2‐(2,2,2‐Trifluoroacetamido)Butanoyl}‐N‐[(S)−1‐(Hydroxyimino)−3‐[(S)−2‐Oxopyrrolidin‐3‐yl]Propan‐2‐yl]−4‐(Prop‐2‐yn‐1‐Yloxy)Pyrrolidine‐2‐Carboxamide]: on SARS-CoV-2 M^pro [1], the Ki is 31.6 nM and the “Biological Activity (pKi)” value stood at 7.5 ± 0.04.
For the compound `CCO[C@@H]1C[C@@H](C(=O)N[C@H](C=NO)C[C@@H]2CCNC2=O)N(C(=O)[C@@H](NC(=O)C(F)(F)F)C(C)(C)C)C1` [Compound 26, (2S,4R)−1‐{(S)−3,3‐Dimethyl‐2‐(2,2,2‐Trifluoroacetamido)Butanoyl}−4‐Ethoxy‐N‐[(S)−1‐(Hydroxyimino)−3‐[(S)−2‐Oxopyrrolidin‐3‐yl]Propan‐2‐yl]Pyrrolidine‐2‐Carboxamide], at SARS-CoV-2 M^pro [1], the Ki was 100 nM and the “Biological Activity (pKi)” value is 7.0 ± 0.02.
With `CO[C@@H]1C[C@@H](C(=O)N[C@H](/C=C(\F)S(=O)(=O)c2ccccc2)C[C@@H]2CCNC2=O)N(C(=O)[C@@H](NC(=O)C(F)(F)F)C(C)(C)C)C1` [Compound 30, (2S,4R)−1‐{(S)−3,3‐Dimethyl‐2‐(2,2,2‐Trifluoroacetamido)Butanoyl}‐N‐[(S,E)−4‐Fluoro‐1‐((S)−2‐Oxopyrrolidin‐3‐yl)−4‐(Phenylsulfonyl)but‐3‐en‐2‐yl]−4‐Methoxypyrrolidine‐2‐Carboxamide], on SARS-CoV-2 M^pro [1], the affinity, expressed as Ki, was 7.94 nM; the “Biological Activity (pKi)” value is on record as 8.1 ± 0.01; the “fold more potent than compound 22” value was approximately 20 fold; the “ΔpK i relative to oxime analog 22” value is 1.3. Also, on WT SARS-CoV-2 Mpro, the “mechanism of inhibition (reversibility)” value is listed as “reversible”. Further, the “remaining parent compound after 480 min” value in series [2] is recorded as approximately 100%.
Regarding `C=CCO[C@@H]1C[C@@H](C(=O)N[C@H](C=NO)C[C@@H]2CCNC2=O)N(C(=O)[C@@H](NC(=O)C(F)(F)F)C(C)(C)C)C1` [Compound 24, (2S,4R)−4‐(Allyloxy)−1‐{(S)−3,3‐Dimethyl‐2‐(2,2,2‐Trifluoroacetamido)Butanoyl}‐N‐[(S)−1‐(Hydroxyimino)−3‐[(S)−2‐Oxopyrrolidin‐3‐yl]Propan‐2‐yl]Pyrrolidine‐2‐Carboxamide], on SARS-CoV-2 M^pro [1], the Ki is 50.1 nM and the “Biological Activity (pKi)” value stood at 7.3 ± 0.08.
For `CO[C@@H]1C[C@@H](C(=O)N[C@H](C=NO)C[C@@H]2CCNC2=O)N(C(=O)[C@@H](NC(=O)C(F)(F)F)C(C)(C)C)C1` [Compound 22, (2S,4R)−1‐{(S)−3,3‐Dimethyl‐2‐(2,2,2‐Trifluoroacetamido)butanoyl}‐N‐[(S)−1‐(Hydroxyimino)−3‐[(S)−2‐Oxopyrrolidin‐3‐yl]Propan‐2‐yl]−4‐Methoxypyrrolidine‐2‐Carboxamide], at SARS-CoV-2 M^pro [1], the Ki is 158 nM and the “Biological Activity (pKi)” value came out at 6.8 ± 0.01. In addition, the “mechanism of inhibition (reversibility)” value on WT SARS-CoV-2 Mpro is “reversible”. Moreover, the “remaining parent compound after 480 min” value in series [2] is reported as “ca. 60%”.
With `C[C@]12CC[C@H]3[C@@H](CCC4=CC(=O)CC[C@@]43C)[C@@H]1CC[C@@H]2O` [testosterone, reference compound], the “metabolic stability toward liver microsomes (in words)” value in series [2] was “readily degraded”.
`CO[C@@H]1C[C@@H](C(=O)N[C@H](/C=C/S(=O)(=O)c2ccccc2)C[C@@H]2CCNC2=O)N(C(=O)[C@@H](NC(=O)C(F)(F)F)C(C)(C)C)C1` [Compound 32, (2S,4R)−1‐{(S)−3,3‐Dimethyl‐2‐(2,2,2‐Trifluoroacetamido)butanoyl}−4‐Methoxy‐N‐[(S,E)−1‐((S)−2‐Oxopyrrolidin‐3‐yl)−4‐(Phenylsulfonyl)but‐3‐en‐2‐yl]Pyrrolidine‐2‐Carboxamide]: at SARS-CoV-2 M^pro [3], the kinact/KI came to 4400 M⁻¹ s⁻¹. In addition, on WT SARS-CoV-2 Mpro, the “residual enzyme activity after jump dilution” value is on record as “very low residual enzyme activity” and the “mechanism of inhibition (reversibility)” value was “irreversible”.
As to `CC(C)(C)[C@H](NC(=O)C(F)(F)F)C(=O)N1C[C@H](c2ccccc2)C[C@H]1C(=O)N[C@H](C=NO)C[C@@H]1CCNC1=O` [Compound 23, (2S,4S)−1‐{(S)−3,3‐Dimethyl‐2‐(2,2,2‐Trifluoroacetamido)Butanoyl}‐N‐[(S)−1‐(Hydroxyimino)−3‐[(S)−2‐Oxopyrrolidin‐3‐yl]Propan‐2‐yl]−4‐Phenylpyrrolidine‐2‐Carboxamide], on SARS-CoV-2 M^pro [1], the inhibition constant (Ki) was 50.1 nM and the “Biological Activity (pKi)” value came to 7.3 ± 0.01.
For `CC(C)(C)[C@H](NC(=O)C(F)(F)F)C(=O)N1C[C@H](OCc2ccccc2)C[C@H]1C(=O)N[C@H](C=NO)C[C@@H]1CCNC1=O` [Compound 29, (2S,4R)−4‐(Benzyloxy)−1‐{(S)−3,3‐Dimethyl‐2‐(2,2,2‐Trifluoroacetamido)Butanoyl}‐N‐[(S)−1‐(Hydroxyimino)−3‐[(S)−2‐Oxopyrrolidin‐3‐yl]Propan‐2‐yl]Pyrrolidine‐2‐Carboxamide] the same measures were 200 nM and 6.7 ± 0.02.
Take `COc1ccc(C(=O)ON=C[C@H](C[C@@H]2CCNC2=O)NC(=O)[C@@H]2C[C@@H](OC)CN2C(=O)[C@@H](NC(=O)C(F)(F)F)C(C)(C)C)cc1` [Compound 33, (2S,4R)−1‐{(S)−3,3‐Dimethyl‐2‐(2,2,2‐Trifluoroacetamido)Butanoyl}−4‐Methoxy‐N‐[(S)−1‐[((4‐Methoxybenzoyl)Oxy)Imino]−3‐[(S)−2‐Oxopyrrolidin‐3‐yl]Propan‐2‐yl]Pyrrolidine‐2‐Carboxamide]: the “fold higher reactivity than the vinyl sulfone (32)” value on SARS-CoV-2 M^pro [3] (Kinact/KI of 33 vs 32) was approximately 20 fold. Further, the kinact/KI at SARS-CoV-2 M^pro [3] is 77000 M⁻¹ s⁻¹. Further, on WT SARS-CoV-2 Mpro, the “residual enzyme activity after jump dilution” value was “very low residual enzyme activity” and the “mechanism of inhibition (reversibility)” value was “irreversible”. Besides, the “metabolic stability toward liver microsomes (in words)” value in series [2] is “readily degraded”.
Turning to `CC(C)(C)[C@H](NC(=O)C(F)(F)F)C(=O)N1C[C@H]2[C@@H]([C@H]1C(=O)N[C@H](C#N)C[C@@H]1CCNC1=O)C2(C)C` [nirmatrelvir], in series [2], the “remaining parent compound after 480 min” value is reported as “ca. 80%”.
With `CC(C)(C)[C@H](NC(=O)C(F)(F)F)C(=O)N1C[C@H](c2ccccc2)C[C@H]1C(=O)N[C@H](C#N)C[C@@H]1CCNC1=O` [Compound 34, (2S,4S)‐N‐[(S)−1‐Cyano‐2‐[(S)−2‐Oxopyrrolidin‐3‐yl]Ethyl]−1‐{(S)−3,3‐Dimethyl‐2‐(2,2,2‐Trifluoroacetamido)Butanoyl}−4‐Phenylpyrrolidine‐2‐Carboxamide], at SARS-CoV-2 M^pro [1], the affinity, expressed as Ki, was 1.26 nM and the “Biological Activity (pKi)” value is recorded as 8.9 ± 0.01. Moreover, the “metabolic stability toward liver microsomes (in words)” value in series [2] is listed as “comparable stability to the initial prototype 22”.
As to `CC(C)(C)[C@H](NC(=O)C(F)(F)F)C(=O)N1C[C@H](C2CCCCC2)C[C@H]1C(=O)N[C@H](C=NO)C[C@@H]1CCNC1=O` [Compound 27, (2S,4S)−4‐Cyclohexyl‐1‐{(S)−3,3‐Dimethyl‐2‐(2,2,2‐Trifluoroacetamido)Butanoyl}‐N‐[(S)−1‐(Hydroxyimino)−3‐[(S)−2‐Oxopyrrolidin‐3‐yl]Propan‐2‐yl]Pyrrolidine‐2‐Carboxamide], at SARS-CoV-2 M^pro [1], the Ki was 100 nM and the “Biological Activity (pKi)” value was 7.0 ± 0.02.
On the same counts, the results for `CC(=O)N[C@@H]1C[C@@H](C(=O)N[C@H](C=NO)C[C@@H]2CCNC2=O)N(C(=O)[C@@H](NC(=O)C(F)(F)F)C(C)(C)C)C1` [Compound 28, (2S,4R)−4‐Acetamido‐1‐{(S)−3,3‐Dimethyl‐2‐(2,2,2‐Trifluoroacetamido)Butanoyl}‐N‐[(S)−1‐(Hydroxyimino)−3‐[(S)−2‐Oxopyrrolidin‐3‐yl]Propan‐2‐yl]Pyrrolidine‐2‐Carboxamide] are 100 nM and 7.0 ± 0.03.
As for `CO[C@@H]1C[C@@H](C(=O)N[C@H](C#N)C[C@@H]2CCNC2=O)N(C(=O)[C@@H](NC(=O)C(F)(F)F)C(C)(C)C)C1` [Compound 31, (2S,4R)‐N‐[(S)−1‐Cyano‐2‐[(S)−2‐Oxopyrrolidin‐3‐yl]Ethyl]−1‐{(S)−3,3‐Dimethyl‐2‐(2,2,2‐Trifluoroacetamido)Butanoyl}−4‐Methoxypyrrolidine‐2‐Carboxamide], on SARS-CoV-2 M^pro [1], the Ki was 1.58 nM, the “Biological Activity (pKi)” value is 8.8 ± 0.01, the “fold more potent than compound 22” value is listed as 100 fold and the “ΔpK i relative to oxime analog 22” value stood at 2.0. For the same compound, the “remaining parent compound after 480 min” value in series [2] is approximately 100%.
